The text below walks through data of US9790202B2, “Anthranilamide derivatives as pesticides” (priority 2010, dated 2017).

Molecules are shown by their SMILES. Where two headings read alike, the source gives them in different places.

Series [1] in a line: log P determination by HPLC on reversed-phase columns (C 18), acidic range. In kind it is physicochemical. How it is done:
The log P values reported in the table above and in the Preparation Examples were determined in accordance with EEC Directive 79/831 Annex V.A8 by HPLC (High Performance Liquid Chromatography) on reversed-phase columns (C 18), with the following methods:
The LC-MS determination in the acidic range is effected at pH 2.7 using 0.1% aqueous formic acid and acetonitrile (contains 0.1% formic acid) as eluents, linear gradient from 10% acetonitrile to 95% acetonitrile
The calibration was effected with unbranched alkan-2-ones (having 3 to 16 carbon atoms) with known log P values (log P values determined on the basis of the retention times by linear interpolation between two successive alkanones).

The test system of series [2] is larvae of the mustard beetle (Phaedon cochleariae). Kind of series: Phaedon test (PHAECO spray treatment), Use Example 2. In kind it is in vivo. Conditions: foliar, 168 h, read-out: efficacy in % (beetle larvae killed). The procedure:
Phaedon Test (PHAECO Spray Treatment)
(§1) Solvent: 78.0 parts by weight of acetone 1.5 parts by weight of dimethylformamide
(§2) Emulsifier: 0.5 part by weight of alkylaryl polyglycol ether
(§3) To produce an appropriate active ingredient formulation, 1 part by weight of active ingredient is mixed with the stated amounts of solvent and emulsifier, and the concentrate is diluted with emulsifier-containing water to the desired concentration.
Leaf discs of Chinese cabbage (Brassica pekinensis) are sprayed with an active ingredient formulation of the desired concentration and, after drying, populated with larvae of the mustard beetle (Phaedon cochleariae).
After 7 days, the efficacy in % is determined 100% means that all beetle larvae have been killed; 0% means that no beetle larvae have been killed.

The test system of series [3] is caterpillars of the armyworm (Spodoptera frugiperda). Kind of series: Spodoptera frugiperda test (SPODFR spray treatment). The series is classed as in vivo. The note with it: Spodoptera frugiperda, foliar, 168 h, read-out: efficacy in % (caterpillars killed). How it is done:
Spodoptera frugiperda Test (SPODFR Spray Treatment)
as §1, §2, §3
Leaf discs of maize (Zea mays) are sprayed with an active ingredient formulation of the desired concentration and, after drying, populated with caterpillars of the armyworm (Spodoptera frugiperda).
After 7 days, the efficacy in % is determined 100% means that all caterpillars have been killed; 0% means that no caterpillars have been killed.

Series [4] concerns green peach aphid (Myzus persicae). Kind of series: Myzus test (MYZUPE spray treatment). In kind it is in vivo. Conditions: foliar, 144 h, read-out: efficacy in % (aphids killed). How it is done:
Myzus Test (MYZUPE Spray Treatment)
Solvent: 78 parts by weight of acetone 1.5 parts by weight of dimethylformamide
as §2, §3
Leaf discs of Chinese cabbage (Brassica pekinensis) infested by all stages of the green peach aphid (Myzus persicae) are sprayed with an active ingredient formulation of the desired concentration.
After 6 days, the efficacy in % is determined 100% means that all aphids have been killed; 0% means that no aphids have been killed.

[5] abbreviates: reversed-phase C18 HPLC column, pH 2.7, HPLC reversed-phase C 18, pH 2.7, 0.1% aqueous formic acid / acetonitrile, read-out: LOGP (HCOOH).
Where [6] appears, read: 100 g/ha, spray on Chinese cabbage leaf discs, after 7 days.
Setting [7] is: 100 g/ha, spray on maize leaf discs, after 7 days.
[8] abbreviates: 100 g/ha, spray on Chinese cabbage leaf discs, after 6 days.

As to `CNC(=O)c1cc(-n2ccc(C(F)(F)F)n2)cc(C)c1NC(=O)c1cc(Cn2nnc(C(F)(F)C(F)(F)F)n2)nn1-c1ncccc1Cl` [Compound 35], the chromatographic logP in series [1] (setting [5]) came out at 3.86. For the same compound, the pest or weed control at 100 g/ha in series [2] (setting [6]) and in series [3] (setting [7]) was 100% each time.
Take `CNC(=O)c1cc(C(N)=S)cc(C)c1NC(=O)c1cc(Cn2nnc(C(F)(F)F)n2)nn1-c1ccccc1Cl` [Compound 24]: the chromatographic logP in series [1] (setting [5]) was 2.65. For the same compound, the pest or weed control at 100 g/ha in series [4] (setting [8]) stood at 90%; in series [2] (setting [6]), 100%; in series [3] (setting [7]), 100%.
In the case of `Cc1cc(C2OCCO2)cc(C(=O)NC(C)(C)C)c1NC(=O)c1cc(Cn2nnc(C(F)(F)F)n2)nn1-c1ncccc1Cl` [Compound 33], in series [1] (pH 2.7, LOGP (HCOOH)), the chromatographic logP is 3.22. Moreover, the pest or weed control at 100 g/ha in series [4] (in Brassica rapa) and in series [3] (in Zea mays) was 100% each time.
With `CC(=O)c1cc(C)c(NC(=O)c2cc(Cn3nnc(C(F)(F)F)n3)nn2-c2ccccc2Cl)c(C(=O)NC(C)C2CC2)c1` (stereo not drawn) [Compound 14], the chromatographic logP in series [1] (setting [5]) was 3.74. In addition, in series [3] (setting [7]), the pest or weed control at 100 g/ha worked out at 100%.
`CNC(=O)c1cc(-n2cncn2)cc(C)c1NC(=O)c1cc(Cn2nnc(C(F)(F)C(F)(F)F)n2)nn1-c1ncccc1Cl` [Compound 37]: the pest or weed control at 100 g/ha in series [4] (in Brassica rapa) turned out to be 80%; in series [2] (in Brassica rapa) it was 100%; in series [3] (in Zea mays), 100%.
Take `CNC(=O)c1cc(C(=O)OC)cc(C)c1NC(=O)c1cc(Cn2nnc(C(F)(F)F)n2)nn1-c1ccccc1Cl` [Compound 30]: the chromatographic logP in series [1] (setting [5]) turned out to be 3.28. Further, the pest or weed control at 100 g/ha in series [3] (setting [7]) was 100%.
For `CNC(=O)c1cc(-n2cncn2)cc(C)c1NC(=O)c1cc(Cn2nnc(C(F)(F)F)n2)nn1-c1ncccc1Cl` [Compound 36], in series [1] (pH 2.7, LOGP (HCOOH)), the chromatographic logP turned out to be 2.25. Further, the pest or weed control at 100 g/ha in series [4] (in Brassica rapa), in series [2] (in Brassica rapa) and in series [3] (in Zea mays) was 100% throughout.
As to `Cc1cc(C(N)=O)cc(C(=O)NC(C)C)c1NC(=O)c1cc(Cn2nnc(C(F)(F)F)n2)nn1-c1ncccc1Cl` [Compound 19], in series [1] (pH 2.7, LOGP (HCOOH)), the chromatographic logP was 2.27. For the same compound, the pest or weed control at 100 g/ha in series [2] (in Brassica rapa) and in series [3] (in Zea mays) was 100% in each case.
Turning to `CC(=O)c1cc(C)c(NC(=O)c2cc(Cn3nnc(C(F)(F)F)n3)nn2-c2ncccc2Cl)c(C(=O)NC(C)C2CC2)c1` (stereo not drawn) [Compound 11], the chromatographic logP in series [1] (pH 2.7, LOGP (HCOOH)) came out at 3.23. The pest or weed control at 100 g/ha in series [2] (in Brassica rapa) and in series [3] (in Zea mays) was 100% in each case.
`Cc1cc(C(N)=O)cc(C(=O)NC2CC2)c1NC(=O)c1cc(Cn2nnc(C(F)(F)F)n2)nn1-c1ncccc1Cl` [Compound 20] showed a chromatographic logP in series [1] (pH 2.7, LOGP (HCOOH)) of 2.11. For the same compound, the pest or weed control at 100 g/ha came out at 83% in series [2] (in Brassica rapa) and 100% in series [3] (in Zea mays).
In series [1] (pH 2.7, LOGP (HCOOH)), `Cc1cc(C(N)=S)cc(C(=O)NC(C)(C)C)c1NC(=O)c1cc(Cn2nnc(C(F)(F)C(F)(F)F)n2)nn1-c1ncccc1Cl` [Compound 26] returned a chromatographic logP of 3.26. Moreover, the pest or weed control at 100 g/ha in series [4] (in Brassica rapa), in series [2] (in Brassica rapa) and in series [3] (in Zea mays) was 100% in each case.
In series [1] (pH 2.7, LOGP (HCOOH)), `CNC(=O)c1cc(C(C)=O)cc(C)c1NC(=O)c1cc(Cn2nnc(C(F)(F)F)n2)nn1-c1ncccc1Cl` [Compound 8] showed a chromatographic logP of 2.53. The pest or weed control at 100 g/ha in series [3] (in Zea mays) is 100%.
With `CNC(=O)c1cc(C(N)=S)cc(C)c1NC(=O)c1cc(Cn2nnc(C(F)(F)C(F)(F)F)n2)nn1-c1ncccc1Cl` [Compound 25], the chromatographic logP in series [1] (pH 2.7, LOGP (HCOOH)) was 2.64. Moreover, the pest or weed control at 100 g/ha in series [4] (in Brassica rapa), in series [2] (in Brassica rapa) and in series [3] (in Zea mays) was 100% each time.
Consider `Cc1cc(C(=O)OCC2CC2)cc(C(=O)NC(C)(C)C)c1NC(=O)c1cc(Cn2nnc(C(F)(F)C(F)(F)F)n2)nn1-c1ncccc1Cl` [Compound 28], for which the chromatographic logP in series [1] (setting [5]) turned out to be 4.54. Further, in series [3] (setting [7]), the pest or weed control at 100 g/ha amounted to 100%.
On to `CC(=O)c1cc(C)c(NC(=O)c2cc(Cn3nnc(C(F)(F)F)n3)nn2-c2ncccc2Cl)c(C(=O)NC(C)C)c1` [Compound 9], for which, in series [1] (pH 2.7, LOGP (HCOOH)), the chromatographic logP was determined as 2.94. For the same compound, the pest or weed control at 100 g/ha in series [3] (in Zea mays) was 100%.
As for `CC(=O)c1cc(C)c(NC(=O)c2cc(Cn3nnc(C(F)(F)F)n3)nn2-c2ccccc2Cl)c(C(=O)NC(C)C)c1` [Compound 13], the chromatographic logP in series [1] (setting [5]) amounted to 3.46. The pest or weed control at 100 g/ha in series [2] (setting [6]) and in series [3] (setting [7]) was 100% each time.
In series [1] (pH 2.7, LOGP (HCOOH)), `Cc1cc(C(N)=O)cc(C(=O)NC(C)(C)C)c1NC(=O)c1cc(Cn2nnc(C(F)(F)F)n2)nn1-c1ncccc1Cl` [Compound 18] showed a chromatographic logP of 2.5. The pest or weed control at 100 g/ha was determined as 90% in series [4] (in Brassica rapa), 100% in series [2] (in Brassica rapa) and 100% in series [3] (in Zea mays).
Consider `Cc1cc(C(=O)OCC2CCC2)cc(C(=O)NC(C)(C)C)c1NC(=O)c1cc(Cn2nnc(C(F)(F)F)n2)nn1-c1ncccc1Cl` [Compound 29], for which the chromatographic logP in series [1] (setting [5]) worked out at 4.62. Also, in series [3] (setting [7]), the pest or weed control at 100 g/ha was 100%.
Turning to `COC(=O)c1cc(C)c(N)c(C(=O)NC(C)(C)C)c1` [Example No. B, methyl 4-amino-3-(tert-butylcarbamoyl)-5-methylbenzoate], in series [1] (reversed-phase C18 HPLC column, pH 2.7, Preparation Example, HPLC reversed-phase C 18, read-out: log P), the chromatographic logP turned out to be 2.48.
`COC(=O)c1cc(C)c(NC(=O)c2cc(Cn3nnc(C(F)(F)C(F)(F)F)n3)nn2-c2ncccc2Cl)c(C(=O)NC(C)(C)C)c1` [Compound 27]: the chromatographic logP in series [1] (setting [5]) came out at 3.85. The values for the pest or weed control at 100 g/ha in series [4] (setting [8]), in series [2] (setting [6]) and in series [3] (setting [7]) were 90%, 100% and 100%, respectively.
Consider `Cc1cc(C2OCC(C)(C)CO2)cc(C(=O)NC(C)(C)C)c1NC(=O)c1cc(Cn2nnc(C(F)(F)F)n2)nn1-c1ncccc1Cl` [Compound 39], for which, in series [1] (setting [5]), the chromatographic logP came out at 4.07. Further, the pest or weed control at 100 g/ha in series [3] (setting [7]) amounted to 100%.
`CC(=O)c1cc(C)c(NC(=O)c2cc(Cn3nnc(C(F)(F)F)n3)nn2-c2ncccc2Cl)c(C(=O)NC2CC2)c1` [Compound 10] showed a chromatographic logP in series [1] (pH 2.7, LOGP (HCOOH)) of 2.73. In addition, the pest or weed control at 100 g/ha in series [3] (in Zea mays) was found to be 100%.
`CNC(=O)c1cc(-n2ccc(C(F)(F)F)n2)cc(C)c1NC(=O)c1cc(Cn2nnc(C(F)(F)F)n2)nn1-c1ncccc1Cl` [Compound 34] had a chromatographic logP in series [1] (pH 2.7, LOGP (HCOOH)) of 3.48. The pest or weed control at 100 g/ha in series [2] (in Brassica rapa) and in series [3] (in Zea mays) was 100% in each case.
With `Cc1cc(C2OCCCO2)cc(C(=O)NC(C)(C)C)c1NC(=O)c1cc(Cn2nnc(C(F)(F)F)n2)nn1-c1ncccc1Cl` [Compound 38], the chromatographic logP in series [1] (pH 2.7, LOGP (HCOOH)) was found to be 3.37. Also, the pest or weed control at 100 g/ha in series [3] (in Zea mays) is 100%.
In the case of `CCNC(=O)c1cc(C(C)=O)cc(C)c1NC(=O)c1cc(Cn2nnc(C(F)(F)F)n2)nn1-c1ccccc1Cl` [Compound 16], the chromatographic logP in series [1] (setting [5]) stood at 3.27. In series [3] (setting [7]), the pest or weed control at 100 g/ha stood at 100%.
With `CC(=O)c1cc(C)c(NC(=O)c2cc(Cn3nnc(C(F)(F)F)n3)nn2-c2ccccc2Cl)c(C(=O)NC(C)(C)C)c1` [Compound 12], the chromatographic logP in series [1] (setting [5]) worked out at 3.76. In addition, in series [3] (setting [7]), the pest or weed control at 100 g/ha turned out to be 100%.
Regarding `Cc1cc(C(=O)OC2CCC2)cc(C(=O)NC(C)(C)C)c1NC(=O)c1cc(Cn2nnc(C(F)(F)F)n2)nn1-c1ncccc1Cl` [Compound 31], in series [1] (setting [5]), the chromatographic logP amounted to 4.37.
